Assay [1] can be described thus: Inhibition of human coronary artery smooth muscle cells (SMC's) proliferation, induced by platelet-derived growth factor (PDGF-BB) 20 ng mL. In kind it is functional.
A short description of assay [2]: Evaluated for inhibition of proliferation of human coronary artery endothelial cells (ECs), induced by 5 % FBS. In kind it is functional, cell-based. The settings on record: Endothelial cell.
Assay [3] in a line: Ratio of inhibitory activity on proliferation of human coronary artery smooth muscle cells to that of human coronary artery endothelial cells. In kind it is functional, Endothelial cell.

By IC50 is commonly meant the concentration at which inhibition is half-maximal. Read a high IC50 as a need for much substance. In the case of `COc1ccc(C(=O)Nc2cc(OC)c(OC)cc2C(=O)N(C)C)cc1OC`, in assay [1], the IC50 is over 2000 nM.

For the molecule `CCOC(=O)c1cc(OC)c(OC)cc1NC(=O)Cc1ccc(OC)c(OC)c1`, the values for the IC50 in assay [2] and in assay [1] were 4.7 µM and 800 nM, respectively. Moreover, in assay [3], the Ratio was determined as 6.

As to `CCOC(=O)c1cc(OC)c(OC)cc1NC(=O)c1cc(OC)c(OC)c(OC)c1`, the 50% inhibitory concentration (IC50) in assay [2] was found to be 4.6 µM; in assay [1], 310 nM. Moreover, the Ratio in assay [3] came out at 15.

As for `COc1ccc(C(=O)Nc2cc(OC)c(OC)cc2C(N)=O)cc1OC`, the IC50 was over 10 µM in assay [2] and 720 nM in assay [1]. The Ratio in assay [3] is given as over 14.

`COc1cc(C(=O)Nc2ccccc2C(N)=O)cc(OC)c1OC` returned an IC50 in assay [1] of over 2000 nM.

The molecule `CNC(=O)c1cc(OC)c(OC)cc1NC(=O)c1ccc(OC)c(OC)c1` yielded an IC50 in assay [1] of over 2000 nM.

Molecule `COc1ccc(C(=O)Nc2cc(OC)c(OC)cc2C(=O)O)cc1OC` returned an IC50 in assay [1] of over 2000 nM.

As for `COc1cc(C(=O)Nc2cc(C)ccc2C(N)=O)cc(OC)c1OC`, in assay [1], the IC50 was over 2000 nM.

For `CCOC(=O)c1cc(OC)c(OC)cc1NC(=O)c1cccc(OC)c1`, the IC50 was found to be 6.1 µM in assay [2] and 1600 nM in assay [1]. The Ratio in assay [3] is 4.

`CCOC(=O)c1cc(OC)c(OC)cc1NC(=O)c1ccc(O)c(N)c1` registered an IC50 in assay [1] of over 2000 nM.

For `CCOC(=O)c1cc(OC)c(OC)cc1NC(=O)c1ccc(OC(C)=O)cc1`, the IC50 is 5.2 µM in assay [2] and 1300 nM in assay [1]. The Ratio in assay [3] amounted to 4.

In turn, `COc1ccc(NC(=O)c2ccc(OC)c(OC)c2)cc1OC` yielded an IC50 in assay [1] of over 2000 nM.

Turning to `COc1cc(C(=O)Nc2cc([N+](=O)[O-])ccc2C(N)=O)cc(OC)c1OC`, the IC50 in assay [2] was under 2 µM; in assay [1] it was 1600 nM.

`CCOC(=O)c1cc(OC)c(OC)cc1NC(=O)c1ccc(OC(C)=O)c(OC)c1`: inhibition in assay [1] was half-maximal at 2800 nM (IC50). This lies in the single-digit micromolar range.

With `COc1ccc(/C=C/C(=O)Nc2ccccc2C(=O)O)cc1OC` [TRANILAST], the results for the IC50 in assay [2] and in assay [1] were 19.1 µM and 24500 nM, respectively. Further, in assay [3], the Ratio came to 0.8.

For the molecule `CCOC(=O)c1cc(OC)c(OC)cc1NC(=O)c1ccc(OC)c(OC)c1OC`, the concentration for half-maximal inhibition (IC50) in assay [2] stood at 2.9 µM; in assay [1] it was 410 nM. Moreover, in assay [3], the Ratio is on record as 7.

As for `CCOC(=O)c1cc(OC)c(OC)cc1NC(=O)/C=C\c1ccc(OC)c(OC)c1`, the IC50 stood at 4.1 µM in assay [2] and 1200 nM in assay [1]. Besides, in assay [3], the Ratio stood at 4.

Consider `COc1ccc(C(=O)Nc2cc(OC)c(OC)cc2C#N)cc1OC`, for which the IC50 in assay [1] was over 2000 nM.

For the molecule `COc1cc(C(=O)Nc2cc(F)c(F)cc2C(N)=O)cc(OC)c1OC`, the values for the IC50 in assay [2] and in assay [1] were over 10 µM and 2000 nM, respectively. The Ratio in assay [3] was over 5.

As for `CCOC(=O)c1ccccc1NC(=O)/C=C/c1ccc(OC)c(OC)c1`, the IC50 in assay [2] is 9.5 µM; in assay [1] it was over 50000 nM.

As to `CCOC(=O)c1cc(OC)c(OC)cc1NC(=O)c1ccc(O)c([N+](=O)[O-])c1`, the figures for the IC50 in assay [2] and in assay [1] were 7.2 µM and 1800 nM, respectively. In addition, in assay [3], the Ratio is recorded as 4.

On to `CCOC(=O)c1cc(OC)c(OC)cc1NC(=O)c1cc(OC)c(OC(C)=O)c(OC)c1`, for which the IC50 in assay [1] was 3100 nM. That is a single-digit micromolar value.

For `COc1cc(C(=O)Nc2ccc(Cl)cc2C(N)=O)cc(OC)c1OC`, in assay [1], the half-inhibitory concentration (IC50) is over 2000 nM.

In turn, `CCOC(=O)c1cc(OC)c(OC)cc1NC(=O)c1cc(OC(C)=O)c(OC(C)=O)c(OC(C)=O)c1` yielded an IC50 in assay [1] of over 2000 nM.

On to `CCOC(=O)c1cc(OC)c(OC)cc1NC(=O)c1ccc(OC)c(OC)c1`, for which the IC50 in assay [2] amounted to 6 µM; in assay [1], 850 nM. For the same molecule, in assay [3], the Ratio is on record as 7.

Turning to `CCOC(=O)c1cc(OC)c(OC)cc1NC(=O)c1ccccc1OC`, the IC50 in assay [2] was 3.8 µM; in assay [1], 800 nM. Also, the Ratio in assay [3] is given as 5.

On to `CCOC(=O)c1cc(OC)c(OC)cc1NC(=O)c1ccc(OC)cc1`, for which the IC50 in assay [2] is under 2 µM; in assay [1], 610 nM.

As for `COc1ccc(/C=C/C(=O)Nc2ccccc2C(N)=O)cc1OC`, the values for the IC50 in assay [2] and in assay [1] were 34.5 µM and 16700 nM, respectively. In addition, in assay [3], the Ratio amounted to 2.

On to `COc1cc(C(=O)Nc2cc(N)ccc2C(N)=O)cc(OC)c1OC`, for which, in assay [1], the IC50 is over 2000 nM.

Take `CCOC(=O)c1cc(OC)c(OC)cc1NC(=O)c1ccc(OC(C)=O)c(OC(C)=O)c1`: in assay [1], half-maximal inhibition (IC50) was put at 2200 nM.

Source of the values: ChEMBL document CHEMBL1134727, “Synthesis and structure-activity relationship of diarylamide derivatives as selective inhibitors of the proliferation of human coronary artery smooth muscle cells” (Bioorg Med Chem Lett, 2001).
